Test results: patent US20250171463A1 (BIOGEN MA INC., priority 2022, published 2025)

Target: T1, EBP (Homo sapiens, UniProt Q15125)
T1 construct: HEK293T cells were utilized as the source of EBP enzyme; endogenous in cells; host or cells: HEK293T
Assay: EBP Functional Assay (EBP immunoaffinity LC-MS assay)
Format: biochemical
Details: EBP enzyme from HEK293T cells; 30 min with inhibitor, then zymosterol-d5, 37° C., 4 h; percent conversion to dehydrolathosterol-d5 by LC-APCI MRM MS
Procedure: The EBP immunoaffinity (IA) LC-MS assay measures the potency of small molecule inhibitors of EBP by quantifying their concentration-dependent changes in the enzyme's substrate and product using liquid chromatography atmospheric pressure chemical ionization multiple reaction monitoring mass spectrometry (LC-APCI MRM MS). HEK293T cells were utilized as the source of EBP enzyme. The enzyme was incubated with the small molecule inhibitors at variable concentrations for 30 min. Deuterated form of EBP substrate, zymosterol-d5 (Avanti Polar Lipids, Cat #700068P-1 mg), was then added and the plate was incubated at 37° C. for 4 h. Finally, the sterol isomers were extracted and injected to LC-APCI MRM MS. MRM transition used for the quantification for both zymosterol and […] (substrate and product of EBP enzymatic reaction, respectively) is 372.3-203.2, CE 30 and DP 80 in positive ion mode. Percent conversion of the zymosterol-d5 to dehydrolathosterol-d5 was used to derive IC50 curves. Tasin-1 (1′-[(4-Methoxyphenyl)sulfonyl]-4-methyl-1,4′-bipiperidine, CAS 792927-06-1) was used as the reference small molecule inhibitor.
Percent conversion versus the compound concentration data were fit to the following 4-parameter logistic model to generate IC50 curves: […]

T1 sequence (Q15125 whole entry): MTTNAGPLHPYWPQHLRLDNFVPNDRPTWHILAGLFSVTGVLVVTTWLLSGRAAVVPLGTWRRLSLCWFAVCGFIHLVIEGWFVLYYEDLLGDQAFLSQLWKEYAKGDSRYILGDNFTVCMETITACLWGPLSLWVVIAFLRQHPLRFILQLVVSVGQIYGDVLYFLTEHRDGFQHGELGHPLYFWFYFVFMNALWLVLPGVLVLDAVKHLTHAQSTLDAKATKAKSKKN

| IC50 [nM] | Compound |
| --- | --- |
| 250 to 4000 | 4-((6-((2-methyl-6-(trifluoromethyl)pyridin-3-yl)sulfonyl)-2,6-diazaspiro[3.3]heptan-2-yl)methyl)tetrahydro-2H-pyran-4-ol [Example 75] |
| < 100 | Cc1nc(C(F)(F)F)ccc1S(=O)(=O)N1CC2(CN(C(C)C3CCOC3)C2)C1 (mixture of isomers) [Example 130] |
| < 100 | Cc1nc(C(F)(F)F)ccc1S(=O)(=O)N1CC2(CN(C(C)C3(C)CCCO3)C2)C1 (mixture of isomers) [Example 135] |
| < 100 | Cc1nc(C(F)(F)F)ccc1S(=O)(=O)N1CC2(CN(C(C)C3CCCO3)C2)C1 (mixture of isomers) [Example 138] |
| 100 to 250 | O=S(=O)(c1ccc(OC(F)F)cc1)N1CCOC2(CCN(C3CCOCC3)C2)C1 (racemic) [Example 2, 9-((4-(Difluoromethoxy)phenyl)sulfonyl)-2-(tetrahydro-2H-pyran-4-yl)-6-oxa-2,9-diazaspiro[4.5]decane] |
| 250 to 4000 | O=S(=O)(c1ccc(OC(F)F)cc1)N1CCOC2(CCN(C3CCOC3)CC2)C1 (racemic) [Example 6, 4-((4-(Difluoromethoxy)phenyl)sulfonyl)-9-(tetrahydrofuran-3-yl)-1-oxa-4,9-diazaspiro[5.5]undecane] |
| 250 to 4000 | O=S(=O)(c1ccc(OC(F)F)cc1)N1CCO[C@@]2(CCN([C@H]3CCCOC3)C2)C1 (racemic) [Example 8, (±)—(R)-9-((4-(Difluoromethoxy)phenyl)sulfonyl)-2-((S)-tetrahydro-2H-pyran-3-yl)-6-oxa-2,9-diazaspiro[4.5]decane] |
| 250 to 4000 | O=S(=O)(c1ccc(OC(F)F)cc1)N1CCO[C@@]2(CCN([C@@H]3CCCOC3)C2)C1 (racemic) [Example 9, (±)—(R)-9-((4-(Difluoromethoxy)phenyl)sulfonyl)-2-((R)-tetrahydro-2H-pyran-3-yl)-6-oxa-2,9-diazaspiro[4.5]decane] |
| < 100 | O=S(=O)(c1ccc(OC(F)F)cc1)N1CCOC2(CCN(C3CC4(COC4)C3)C2)C1 (racemic) [Example 25, 9-((4-(Difluoromethoxy)phenyl)sulfonyl)-2-(2-oxaspiro[3.3]heptan-6-yl)-6-oxa-2,9-diazaspiro[4.5]decane] |
| 250 to 4000 | Cc1nc(C(F)(F)F)ccc1S(=O)(=O)N1CC2(CN(C3CC4(CCO4)C3)C2)C1 (racemic) [Example 69, rac-2-((2-methyl-6-(trifluoromethyl)pyridin-3-yl)sulfonyl)-6-(1-oxaspiro[3.3]heptan-6-yl)-2,6-diazaspiro[3.3]heptane] |
| 100 to 250 | Cc1cc(C(F)(F)F)nc(C)c1S(=O)(=O)N1CC2(CN(CC3CCOC3)C2)C1 (racemic) [Example 103] |
| < 100 | Cc1nc(C(F)(F)F)ccc1S(=O)(=O)N1CC2(CN(C(C)C3CCOCC3)C2)C1 (racemic) [Example 153, rac-2-((2-methyl-6-(trifluoromethyl)pyridin-3-yl)sulfonyl)-6-(1-(tetrahydro-2H-pyran-4-yl)ethyl)-2,6-diazaspiro[3.3]heptane] |
| < 100 | Cc1nc(C(F)(F)F)ccc1S(=O)(=O)N1CC2(CN(C(C)C3COC3)C2)C1 (racemic) [Example 155, rac-2-((2-methyl-6-(trifluoromethyl)pyridin-3-yl)sulfonyl)-6-(1-(oxetan-3-yl)ethyl)-2,6-diazaspiro[3.3]heptane] |
| < 100 | Cc1nc(C(F)(F)F)ccc1S(=O)(=O)N1CC2(CN(C(C)C34COC(C)(C3)C4)C2)C1 (racemic) [Example 167, rac-2-(1-(1-methyl-2-oxabicyclo[2.1.1]hexan-4-yl)ethyl)-6-((2-methyl-6-(trifluoromethyl)pyridin-3-yl)sulfonyl)-2,6-diazaspiro[3.3]heptane] |
| 100 to 250 | Cc1nc(C(F)(F)F)ccc1S(=O)(=O)N1CC2(CN(CC[C@@H]3COC(C)(C)O3)C2)C1 (racemic) [Example 173] |
| 100 to 250 | Cc1nc(C(F)(F)F)ccc1S(=O)(=O)N1CC2(CN(C[C@H]3[C@H](C#N)C3(C)C)C2)C1 (racemic) [Example 174] |
| < 100 | Cc1nc(C(F)(F)F)ccc1S(=O)(=O)N1CC2(CN(C[C@@H]3CC[C@H]4C[C@H]3CO4)C2)C1 (racemic) [Example 175] |
| < 100 | Cn1nc(C(F)(F)F)cc1S(=O)(=O)N1CC2(CN(CC3CCOC3)C2)C1 (racemic) [Example 197, rac-2-((1-Methyl-3-(trifluoromethyl)-1H-pyrazol-5-yl)sulfonyl)-6-((tetrahydrofuran-3-yl)methyl)-2,6-diazaspiro[3.3]heptane] |

| IC50 [nM] | Compound |
| --- | --- |
| < 100 | Cn1nc(C(F)(F)F)cc1S(=O)(=O)N1CC2(CN(CC3CCOC(C)(C)C3)C2)C1 (racemic) [Example 198, rac-2-((2,2-dimethyltetrahydro-2H-pyran-4-yl)methyl)-6-((1-methyl-3-(trifluoromethyl)-1H-pyrazol-5-yl)sulfonyl)-2,6-diazaspiro[3.3]heptane] |
| < 100 | CC(C1CCOCC1)N1CC2(C1)CN(S(=O)(=O)c1cc(C(F)(F)F)nn1C)C2 (racemic) [Example 212, rac-2-((1-methyl-3-(trifluoromethyl)-1H-pyrazol-5-yl)sulfonyl)-6-(1-(tetrahydro-2H-pyran-4-yl)ethyl)-2,6-diazaspiro[3.3]heptane] |
| 250 to 4000 | Cn1nc(C(F)(F)F)cc1S(=O)(=O)N1CC2(CN(CC3COCCO3)C2)C1 (racemic) [Example 215, rac-2-((1,4-dioxan-2-yl)methyl)-6-((1-methyl-3-(trifluoromethyl)-1H-pyrazol-5-yl)sulfonyl)-2,6-diazaspiro[3.3]heptane] |
| 250 to 4000 | Cc1nc(C(F)(F)F)ccc1S(=O)(=O)N1CC2(CN(CC3COCCO3)C2)C1 (racemic) [Example 216, rac-2-((1,4-dioxan-2-yl)methyl)-6-((2-methyl-6-(trifluoromethyl)pyridin-3-yl)sulfonyl)-2,6-diazaspiro[3.3]heptane] |
| 100 to 250 | O=S(=O)(c1ccc(OC(F)F)cc1)N1CCO[C@]2(CCN(C3CCOCC3)C2)C1 (single isomer, unassigned) [Example 3] |
| < 100 | O=S(=O)(c1ccc(OC(F)F)cc1)N1CCO[C@@]2(CCN(C3CCOCC3)C2)C1 (single isomer, unassigned) [Example 4] |
| < 100 | O=S(=O)(c1cc(F)cc(F)c1)N1CCO[C@]2(CCN(C3CCOCC3)C2)C1 (single isomer, unassigned) [Example 14] |
| 100 to 250 | O=S(=O)(c1cc(F)cc(F)c1)N1CCO[C@@]2(CCN(C3CCOCC3)C2)C1 (single isomer, unassigned) [Example 15] |
| 100 to 250 | O=S(=O)(c1ccc(OC(F)F)cc1)N1CCO[C@@]2(CCN(C3CC4(COC4)C3)C2)C1 (single isomer, unassigned) [Example 26] |
| 100 to 250 | O=S(=O)(c1ccc(OC(F)F)cc1)N1CCO[C@]2(CCN(C3CC4(COC4)C3)C2)C1 (single isomer, unassigned) [Example 27] |
| 250 to 4000 | COC1CCC(N2CC3(C2)CN(S(=O)(=O)c2ccc(C(F)F)nc2C2CC2)C3)CC1 (single isomer, unassigned) [Example 117, 2-((2-cyclopropyl-6-(difluoromethyl)pyridin-3-yl)sulfonyl)-6-(4-methoxycyclohexyl)-2,6-diazaspiro[3.3]heptane] |
| 100 to 250 | COC1CCC(N2CC3(C2)CN(S(=O)(=O)c2ccc(C(F)F)nc2C2CC2)C3)CC1 (single isomer, unassigned) [Example 118, 2-((2-cyclopropyl-6-(difluoromethyl)pyridin-3-yl)sulfonyl)-6-(4-methoxycyclohexyl)-2,6-diazaspiro[3.3]heptane] |
| 100 to 250 | CC1(O)CCC(N2CC3(C2)CN(S(=O)(=O)c2cnc(C(F)(F)F)cc2C2CC2)C3)CC1 (single isomer, unassigned) [Example 123, 4-(6-((4-cyclopropyl-6-(trifluoromethyl)pyridin-3-yl)sulfonyl)-2,6-diazaspiro[3.3]heptan-2-yl)-1-methylcyclohexan-1-ol] |
| 100 to 250 | CC1(O)CCC(N2CC3(C2)CN(S(=O)(=O)c2cnc(C(F)(F)F)cc2C2CC2)C3)CC1 (single isomer, unassigned) [Example 124, 4-(6-((4-cyclopropyl-6-(trifluoromethyl)pyridin-3-yl)sulfonyl)-2,6-diazaspiro[3.3]heptan-2-yl)-1-methylcyclohexan-1-ol] |
| < 100 | CCc1cc(C(F)(F)F)ncc1S(=O)(=O)N1CC2(CN(C3CCC(C)(O)CC3)C2)C1 (single isomer, unassigned) [Example 127, 4-(6-((4-ethyl-6-(trifluoromethyl)pyridin-3-yl)sulfonyl)-2,6-diazaspiro[3.3]heptan-2-yl)-1-methylcyclohexan-1-ol] |
| < 100 | CCc1cc(C(F)(F)F)ncc1S(=O)(=O)N1CC2(CN(C3CCC(C)(O)CC3)C2)C1 (single isomer, unassigned) [Example 128, 4-(6-((4-ethyl-6-(trifluoromethyl)pyridin-3-yl)sulfonyl)-2,6-diazaspiro[3.3]heptan-2-yl)-1-methylcyclohexan-1-ol] |
| < 100 | Cc1nc(C(F)(F)F)ccc1S(=O)(=O)N1CC2(CN(C(C)C3CCOCC3)C2)C1 (single isomer, unassigned) [Example 156] |
| 250 to 4000 | Cc1nc(C(F)(F)F)ccc1S(=O)(=O)N1CC2(CN(C(C)C3COC3)C2)C1 (single isomer, unassigned) [Example 158] |
